From US20230085307A1, “PYRIDAZINONE COMPOUND AND HERBICIDE” (NISSAN CHEMICAL CORPORATION, priority 2019, published 2023)

Legend:
[1] = system: chickweed; experiment: Test Example 4: herbicidal effect by soil treatment (Table 19, symbol P); format: in vivo, common chickweed (Stellaria media); settings: for P: chickweed, herbicidal effect rating: AAH 320 g/ha
In short: (§1)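 Pre-emergence style soil spray: seeds under ~1.5 cm sterilized diluvial soil received a uniform coat of emulsion diluted to the predetermined herbicide amount. Greenhouse 25–30° C; readout at week three on previously defined criteria.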

[2] = system: oval-leafed pondweed; experiment: Test Example 1: herbicidal activity, application before weed generation under submerged conditions (Table 16, symbol C); format: in vivo, oval-leafed pondweed (Monochoria vaginalis); settings: 320 g/ha applied herbicide
In short: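 Submerged Wagner pots (alluvial soil, 4 cm water) sown with weed seeds and planted with 2.5-leaf rice seedlings; emulsifiable concentrate diluted in water applied to water surface on sowing day. Held in greenhouse at 25-30 °C; injury scored 0-5 by herbicidal rate after three weeks.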

[3] = system: barnyard grass; experiment: Test Example 4: herbicidal effect by soil treatment (Table 19, symbol H); format: in vivo, barnyard grass (Echinochloa crus-galli); settings: for H: barnyard grass, herbicidal effect rating: AAH 320 g/ha
In short: as §1

[4] = system: velvetleaf; experiment: Test Example 5: herbicidal effect by foliage application, plastic box (Table 20, symbol M); format: in vivo, velvetleaf (Abutilon theophrasti); settings: foliage application, AAH 320 g/ha, three weeks after application
In short: (§2)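 Plants were sown into sterilized diluvial soil under about 1.5 cm cover and kept in a greenhouse at 25° C. to 30° C. Fourteen days on, foliage received an even spray of the diluted emulsion. Herbicidal or crop effect was judged three weeks afterwards.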

[5] = system: persian speedwell; experiment: Test Example 5: herbicidal effect by foliage application, plastic box (Table 20, symbol R); format: in vivo, Persian speedwell (Veronica persica); settings: foliage application, AAH 320 g/ha, three weeks after application
In short: as §2

[6] = system: lambsquarters; experiment: Test Example 4: herbicidal effect by soil treatment (Table 19, symbol O); format: in vivo, lambsquarters (Chenopodium album); settings: for O: lambsquarters, herbicidal effect rating: AAH 320 g/ha
In short: as §1

[7] = system: velvetleaf; experiment: Test Example 4: herbicidal effect by soil treatment (Table 19, symbol M); format: in vivo, velvetleaf (Abutilon theophrasti); settings: for M: velvetleaf, herbicidal effect rating: AAH 320 g/ha
In short: as §1

[8] = system: southern crabgrass; experiment: Test Example 5: herbicidal effect by foliage application, plastic box (Table 20, symbol F); format: in vivo, southern crabgrass (Digitaria ciliaris); settings: foliage application, AAH 320 g/ha, three weeks after application
In short: as §2

[9] = system: green foxtail; experiment: Test Example 4: herbicidal effect by soil treatment (Table 19, symbol G); format: in vivo, green foxtail (Setaria viridis); settings: for G: green foxtail, herbicidal effect rating: AAH 320 g/ha
In short: as §1

[10] = system: Japanese bulrush; experiment: Test Example 2: herbicidal activity, application during weed generation under submerged conditions (Table 17, symbol B); format: in vivo, Japanese bulrush (Schoenoplectus juncoides); settings: AAH 320 g/ha; application during weed generation, submerged conditions
In short: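 Steps: fill Wagner pots with alluvial soil; add water to give 4 cm depth; sow the species mixed; grow under glass at 25–30° C.; at 1–2 leaves apply water-diluted emulsion formulation to the water surface at a fixed herbicide amount; score after 3 weeks.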

[11] = system: wild oat; experiment: Test Example 4: herbicidal effect by soil treatment (Table 19, symbol I); format: in vivo, wild oat (Avena fatua); settings: for I: wild oat, herbicidal effect rating: AAH 320 g/ha
In short: as §1

[12] = system: southern crabgrass; experiment: Test Example 4: herbicidal effect by soil treatment (Table 19, symbol F); format: in vivo, southern crabgrass (Digitaria ciliaris); settings: for F: southern crabgrass, herbicidal effect rating: AAH 320 g/ha
In short: as §1

[13] = system: blackgrass; experiment: Test Example 4: herbicidal effect by soil treatment (Table 19, symbol J); format: in vivo, blackgrass (Alopecurus myosuroides); settings: for J: blackgrass, herbicidal effect rating: AAH 320 g/ha
In short: as §1

[14] = system: chickweed; experiment: Test Example 5: herbicidal effect by foliage application, plastic box (Table 20, symbol P); format: in vivo, common chickweed (Stellaria media); settings: foliage application, AAH 320 g/ha, three weeks after application
In short: as §2

[15] = system: persian speedwell; experiment: Test Example 4: herbicidal effect by soil treatment (Table 19, symbol R); format: in vivo, Persian speedwell (Veronica persica); settings: for R: persian speedwell, herbicidal effect rating: AAH 320 g/ha
In short: as §1

[16] = system: lambsquarters; experiment: Test Example 5: herbicidal effect by foliage application, plastic box (Table 20, symbol O); format: in vivo, lambsquarters (Chenopodium album); settings: foliage application, AAH 320 g/ha, three weeks after application
In short: as §2

[17] = system: windgrass; experiment: Test Example 5: herbicidal effect by foliage application, plastic box (Table 20, symbol L); format: in vivo, windgrass (Apera spica-venti); settings: foliage application, AAH 320 g/ha, three weeks after application
In short: as §2

[18] = amount of applied herbicide 320 g/ha

C=CCOc1ccccc1-c1sc2ccccc2c1-c1c(O)c(C)nn(C)c1=O [1-110]
herbicidal effect rating, P: chickweed [1, 18]: 3 (Herbicidal rate of 40% or more and less than 70%)
Herbicidal effect on C: oval-leafed pondweed (grade 0-5) [2]: 4 (Herbicidal rate of 70% or more and less than 90%)
herbicidal effect rating, H: barnyard grass [3, 18]: 3 (Herbicidal rate of 40% or more and less than 70%)
M: velvetleaf, herbicidal effect [4]: 2 (Herbicidal rate of 20% or more and less than 40%)
R: persian speedwell, herbicidal effect [5]: 5 (Herbicidal rate of 90% or more (almost completely withered))
herbicidal effect rating, O: lambsquarters [6, 18]: 0 (Herbicidal rate of 5% or less (almost no effect))
herbicidal effect rating, M: velvetleaf [7, 18]: 1 (Herbicidal rate of 5% or more and less than 20%)
F: southern crabgrass, herbicidal effect [8]: 4 (Herbicidal rate of 70% or more and less than 90%)
herbicidal effect rating, G: green foxtail [9, 18]: 3 (Herbicidal rate of 40% or more and less than 70%)
herbicidal effect rating, B: Japanese bulrush [10]: 2 (Herbicidal rate of 20% or more and less than 40%)
herbicidal effect rating, I: wild oat [11, 18]: 1 (Herbicidal rate of 5% or more and less than 20%)
herbicidal effect rating, F: southern crabgrass [12, 18]: 3 (Herbicidal rate of 40% or more and less than 70%)
herbicidal effect rating, J: blackgrass [13, 18]: 2 (Herbicidal rate of 20% or more and less than 40%)
P: chickweed, herbicidal effect [14]: 5 (Herbicidal rate of 90% or more (almost completely withered))
herbicidal effect rating, R: persian speedwell [15, 18]: 3 (Herbicidal rate of 40% or more and less than 70%)
O: lambsquarters, herbicidal effect [16]: 0 (Herbicidal rate of 5% or less (almost no effect))
L: windgrass, herbicidal effect [17]: 3 (Herbicidal rate of 40% or more and less than 70%)

CCCC(=O)Oc1c(C)nn(C)c(=O)c1-c1c(-c2ccc(C(F)(F)F)cc2)sc2ccccc12 [1-130]
P: chickweed, herbicidal effect rating [1]: 3 (Herbicidal rate of 40% or more and less than 70%)
Herbicidal effect on C: oval-leafed pondweed (grade 0-5) [2]: 3 (Herbicidal rate of 40% or more and less than 70%)
H: barnyard grass, herbicidal effect rating [3]: 3 (Herbicidal rate of 40% or more and less than 70%)
M: velvetleaf, herbicidal effect [4]: 5 (Herbicidal rate of 90% or more (almost completely withered))
R: persian speedwell, herbicidal effect [5]: 5 (Herbicidal rate of 90% or more (almost completely withered))
O: lambsquarters, herbicidal effect rating [6]: 4 (Herbicidal rate of 70% or more and less than 90%)
M: velvetleaf, herbicidal effect rating [7]: 1 (Herbicidal rate of 5% or more and less than 20%)
F: southern crabgrass, herbicidal effect [8]: 0 (Herbicidal rate of 5% or less (almost no effect))
G: green foxtail, herbicidal effect rating [9]: 3 (Herbicidal rate of 40% or more and less than 70%)
herbicidal effect rating, B: Japanese bulrush [10]: 2 (Herbicidal rate of 20% or more and less than 40%)
I: wild oat, herbicidal effect rating [11]: 0 (Herbicidal rate of 5% or less (almost no effect))
F: southern crabgrass, herbicidal effect rating [12]: 1 (Herbicidal rate of 5% or more and less than 20%)
J: blackgrass, herbicidal effect rating [13]: 0 (Herbicidal rate of 5% or less (almost no effect))
P: chickweed, herbicidal effect [14]: 5 (Herbicidal rate of 90% or more (almost completely withered))
R: persian speedwell, herbicidal effect rating [15]: 3 (Herbicidal rate of 40% or more and less than 70%)
O: lambsquarters, herbicidal effect [16]: 4 (Herbicidal rate of 70% or more and less than 90%)
L: windgrass, herbicidal effect [17]: 3 (Herbicidal rate of 40% or more and less than 70%)

C#CCOc1ccc(-c2sc3ccccc3c2-c2c(O)c(C)nn(C)c2=O)cc1 [1-136]
P: chickweed, herbicidal effect rating [1]: 1 (Herbicidal rate of 5% or more and less than 20%)
Herbicidal effect on C: oval-leafed pondweed (grade 0-5) [2]: 0 (Herbicidal rate of 5% or less (almost no effect))
H: barnyard grass, herbicidal effect rating [3]: 4 (Herbicidal rate of 70% or more and less than 90%)
M: velvetleaf, herbicidal effect [4]: 4 (Herbicidal rate of 70% or more and less than 90%)
R: persian speedwell, herbicidal effect [5]: 5 (Herbicidal rate of 90% or more (almost completely withered))
O: lambsquarters, herbicidal effect rating [6]: 5 (Herbicidal rate of 90% or more (almost completely withered))
M: velvetleaf, herbicidal effect rating [7]: 3 (Herbicidal rate of 40% or more and less than 70%)
F: southern crabgrass, herbicidal effect [8]: 0 (Herbicidal rate of 5% or less (almost no effect))
G: green foxtail, herbicidal effect rating [9]: 4 (Herbicidal rate of 70% or more and less than 90%)
herbicidal effect rating, B: Japanese bulrush [10]: 2 (Herbicidal rate of 20% or more and less than 40%)
I: wild oat, herbicidal effect rating [11]: 0 (Herbicidal rate of 5% or less (almost no effect))
F: southern crabgrass, herbicidal effect rating [12]: 2 (Herbicidal rate of 20% or more and less than 40%)
J: blackgrass, herbicidal effect rating [13]: 0 (Herbicidal rate of 5% or less (almost no effect))
P: chickweed, herbicidal effect [14]: 5 (Herbicidal rate of 90% or more (almost completely withered))
R: persian speedwell, herbicidal effect rating [15]: 4 (Herbicidal rate of 70% or more and less than 90%)
O: lambsquarters, herbicidal effect [16]: 4 (Herbicidal rate of 70% or more and less than 90%)
L: windgrass, herbicidal effect [17]: 5 (Herbicidal rate of 90% or more (almost completely withered))

Cc1nn(C)c(=O)c(-c2c(-c3ccc(OCC(F)(F)F)cc3)sc3ccccc23)c1O [1-140]
P: chickweed, herbicidal effect rating [1]: 4 (Herbicidal rate of 70% or more and less than 90%)
Herbicidal effect on C: oval-leafed pondweed (grade 0-5) [2]: 0 (Herbicidal rate of 5% or less (almost no effect))
H: barnyard grass, herbicidal effect rating [3]: 5 (Herbicidal rate of 90% or more (almost completely withered))
M: velvetleaf, herbicidal effect [4]: 4 (Herbicidal rate of 70% or more and less than 90%)
R: persian speedwell, herbicidal effect [5]: 5 (Herbicidal rate of 90% or more (almost completely withered))
O: lambsquarters, herbicidal effect rating [6]: 5 (Herbicidal rate of 90% or more (almost completely withered))
M: velvetleaf, herbicidal effect rating [7]: 5 (Herbicidal rate of 90% or more (almost completely withered))
F: southern crabgrass, herbicidal effect [8]: 4 (Herbicidal rate of 70% or more and less than 90%)
G: green foxtail, herbicidal effect rating [9]: 5 (Herbicidal rate of 90% or more (almost completely withered))
herbicidal effect rating, B: Japanese bulrush [10]: 3 (Herbicidal rate of 40% or more and less than 70%)
I: wild oat, herbicidal effect rating [11]: 0 (Herbicidal rate of 5% or less (almost no effect))
F: southern crabgrass, herbicidal effect rating [12]: 5 (Herbicidal rate of 90% or more (almost completely withered))
J: blackgrass, herbicidal effect rating [13]: 0 (Herbicidal rate of 5% or less (almost no effect))
P: chickweed, herbicidal effect [14]: 5 (Herbicidal rate of 90% or more (almost completely withered))
R: persian speedwell, herbicidal effect rating [15]: 5 (Herbicidal rate of 90% or more (almost completely withered))
O: lambsquarters, herbicidal effect [16]: 5 (Herbicidal rate of 90% or more (almost completely withered))
L: windgrass, herbicidal effect [17]: 3 (Herbicidal rate of 40% or more and less than 70%)
